For data set [1], the system named is HCT-116. The experiment in a line: Cell cycle arrest in human HCT-116 cells assessed as accumulation of cells at G0/G1 phase at 0.5 uM measured after 24 hrs by propidium iodide staining based flow cytometry (reference value: 58.05%). Format: functional.
The test system of data set [2] is HCT-116. Kind of data set: Cell cycle arrest in human HCT-116 cells assessed as down regulation of cyclin D1 expression measured after 24 hrs by Western blot analysis. Format: functional, cell-based. Conditions: dose 0.1-10 µM, DDE = dose-dependent effect.
The subject of data set [3] is HCT-116. The experiment in a line: Cell cycle arrest in human HCT-116 cells assessed as up regulation of Bax expression at 5 uM by Western blot analysis. Format: functional, cell-based. The following applies: time 6-48 hrs, TDE = time-dependent effect.
The subject of data set [4] is HCT-116. Kind of data set: Induction of apoptosis in human HCT-116 cells assessed as late apoptotic cells at 0.5 uM measured after 24 hrs by Annexin V-FITC/propidium iodide staining based flow cytometry (reference value: 3.43%). Format: functional.
Data set [5] has as its target T1, Histone deacetylase 1/2/3 (Homo sapiens) (UniProt Q13547+O15379+Q92769). The experiment in a line: Inhibition of HDAC1/HDAC2/HDAC3 in human HCT-116 cells assessed as increase in accumulation of acetylated H3K9 measured after 24 hrs by Western blot analysis. Format: cell-based. Conditions: dose 0.1-10 µM, DDE = dose-dependent effect.
For data set [6], the system named is HCT-116. Kind of data set: Induction of cell morphological changes in human HCT-116 cells assessed as nuclear fragmentation at 0.5 to 5 uM measured after 24 hrs by Hoechst 33258 staining based fluorescence microscopy. The data set is classed as functional. Conditions: dose 0.5-5 µM.
Data set [7] has as its system HCT-116. The experiment in a line: Cell cycle arrest in human HCT-116 cells assessed as down regulation of cyclin D1 expression at 5 uM by Western blot analysis. The data set is classed as functional, cell-based. Conditions: time 6-48 hrs, TDE = time-dependent effect.
Data set [8] can be described thus: Half life in human liver microsomes at 13.8 uM by HPLC analysis. Format: ADME, Microsome.
The test system of data set [9] is HCT-116. The experiment in a line: Induction of apoptosis in human HCT-116 cells assessed as early apoptotic cells at 0.5 uM measured after 24 hrs by Annexin V-FITC/propidium iodide staining based flow cytometry (reference value: 1.87%). Format: functional.
Data set [10] concerns HCT-116. The experiment in a line: Induction of apoptosis in human HCT-116 cells assessed as viable cells at 5 uM measured after 24 hrs by Annexin V-FITC/propidium iodide staining based flow cytometry (reference value: 87.3%). Conditions: read-out: Activity. The data set is classed as functional.
In data set [11] the test system is HCT-116. Kind of data set: Cell cycle arrest in human HCT-116 cells assessed as accumulation of cells at G2/M phase at 0.1 uM measured after 24 hrs by propidium iodide staining based flow cytometry (reference value: 22.74%). Format: functional.
In data set [12] the test system is HCT-116. Kind of data set: Cell cycle arrest in human HCT-116 cells assessed as accumulation of cells at G2/M phase at 10 uM measured after 12 hrs by propidium iodide staining based flow cytometry (reference value: 22.74%). The data set is classed as functional.
Data set [13] deals with HCT-116. Kind of data set: Induction of apoptosis in human HCT-116 cells assessed as early apoptotic cells at 5 uM measured after 24 hrs by Annexin V-FITC/propidium iodide staining based flow cytometry (reference value: 1.87%). The data set is classed as functional.
Data set [14] concerns the target T2, Histone deacetylase 1 (Homo sapiens, UniProt Q13547). Kind of data set: Potency index, ratio of MS-275 IC50 to test compound IC50 for inhibition of recombinant human full-length C-terminal Flag-His6-tagged HDAC1 (1 to 482 residues) expressed in Sf9 insect cells.
For data set [15], the system named is HCT-116. The experiment in a line: Cell cycle arrest in human HCT-116 cells assessed as increase in accumulation of cells at G0/G1 phase measured after 24 hrs by propidium iodide staining based flow cytometry. Format: functional. Conditions: dose 0.1-10 µM, DDE = dose-dependent effect.
The target in data set [16] is T1, Histone deacetylase 1/2/3 (Homo sapiens). The experiment in a line: Inhibition of HDAC1/HDAC2/HDAC3 in human HCT-116 cells assessed as increase in accumulation of acetylated H4K5 measured after 24 hrs by Western blot analysis. Format: cell-based. The following applies: dose 0.1-10 µM, DDE = dose-dependent effect.
Data set [17] deals with HCT-116. Kind of data set: Induction of apoptosis in human HCT-116 cells assessed as viable cells at 0.5 uM measured after 24 hrs by Annexin V-FITC/propidium iodide staining based flow cytometry (reference value: 87.3%). The following applies: read-out: Activity. The data set is classed as functional.
Data set [18] deals with HCT-116. Kind of data set: Induction of cell morphological changes in human HCT-116 cells assessed as cell shrinkage at 0.5 to 5 uM measured after 24 hrs by phase contrast microscopy. Conditions: dose 0.5-5 µM. Format: functional, cell-based.
Data set [19] relates to HCT-116. The experiment in a line: Cell cycle arrest in human HCT-116 cells assessed as down regulation of CDK2 expression at 5 uM by Western blot analysis. Format: functional, cell-based. Conditions: time 6-48 hrs, TDE = time-dependent effect.
Data set [20] concerns HCT-116. Kind of data set: Cell cycle arrest in human HCT-116 cells assessed as accumulation of cells at G0/G1 phase at 10 uM measured after 24 hrs by propidium iodide staining based flow cytometry (reference value: 58.05%). Format: functional.
Data set [21] relates to HCT-116. Kind of data set: Cell cycle arrest in human HCT-116 cells assessed as up regulation of p21 expression at 5 uM by Western blot analysis. Format: functional, cell-based. Conditions: time 6-48 hrs, TDE = time-dependent effect.
The subject of data set [22] is HCT-116. Kind of data set: Cell cycle arrest in human HCT-116 cells assessed as accumulation of cells at G2/M phase at 5 uM measured after 24 hrs by propidium iodide staining based flow cytometry (reference value: 22.74%). The data set is classed as functional.
For data set [23], the system named is HCT-116. Kind of data set: Induction of apoptosis in human HCT-116 cells assessed as late apoptotic cells at 5 uM measured after 24 hrs by Annexin V-FITC/propidium iodide staining based flow cytometry (reference value: 3.43%). Format: functional.
Data set [24] concerns the target T2, Histone deacetylase 1. Kind of data set: Inhibition of recombinant human full-length C-terminal Flag-His6-tagged HDAC1 (1 to 482 residues) expressed in Sf9 insect cells using fluorogenic HDAC substrate measured after 30 mins by fluorimetry.

Calls of active or inactive are those of the source. No cut-off for these calls is given here.

T2 sequence (Q13547 whole entry, the tested form may be a part): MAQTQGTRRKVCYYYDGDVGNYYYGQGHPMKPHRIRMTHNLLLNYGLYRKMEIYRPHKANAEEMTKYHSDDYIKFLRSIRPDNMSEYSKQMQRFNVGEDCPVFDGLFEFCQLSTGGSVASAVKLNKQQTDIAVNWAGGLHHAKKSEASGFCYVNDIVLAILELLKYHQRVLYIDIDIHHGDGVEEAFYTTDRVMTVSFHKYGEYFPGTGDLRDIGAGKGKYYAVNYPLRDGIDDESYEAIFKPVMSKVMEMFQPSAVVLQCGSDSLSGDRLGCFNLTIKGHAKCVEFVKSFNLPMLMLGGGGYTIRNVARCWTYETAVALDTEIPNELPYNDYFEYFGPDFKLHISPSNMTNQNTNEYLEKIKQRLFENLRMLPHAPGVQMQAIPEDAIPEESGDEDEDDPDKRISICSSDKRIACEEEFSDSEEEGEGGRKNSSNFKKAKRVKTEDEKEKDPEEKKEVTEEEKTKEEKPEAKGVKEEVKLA

With `CCCCNc1nc(Cl)nc2c1ncn2Cc1ccc(C(=O)Nc2ccccc2N)cc1`, the Activity is 64.42% in [1]; “Dde” in data set [2]; “Tde” in data set [3]; 2.12% in data set [4]; “Tde” in [7]; 33.1% in data set [9]. For the same compound, the Activity in data set [11] was 23.95%; in [12], 18.82%; in data set [13], 70.6%; in data set [15] it was “Dde”; in data set [19], “Tde”; in [20], 73.05%. For the same compound, the figures for the Activity entry in data set [21], in data set [22] and in data set [23] were “Tde”, 14.39% and 10.1%, respectively. Also, the inhibition result in [5] and in data set [16] was “Dde” throughout. For the same compound, the result in [6] and in [18] was Active. The compound further displayed a half-life at 13.8 µM in data set [8] of 4.62 h. Moreover, in data set [10], the viability at 5 µM came to 18.4%. Besides, in [14], the Ratio IC50 was 12. In addition, the viability at 0.5 µM in data set [17] turned out to be 64.3%. Moreover, the IC50 in data set [24] worked out at 55.1 nM.

Source of the values: ChEMBL document CHEMBL5154702, “Synthesis and biological evaluation of aminobenzamides containing purine moiety as class I histone deacetylases inhibitors” (Bioorg Med Chem, 2022).
